What was measured:
[1] = target: T1, Inhibitor of nuclear factor kappa-B kinase subunit beta (Homo sapiens, UniProt O14920); experiment: Inhibition of IKK-beta by TR-FRET assay
T1 sequence (O14920 whole entry): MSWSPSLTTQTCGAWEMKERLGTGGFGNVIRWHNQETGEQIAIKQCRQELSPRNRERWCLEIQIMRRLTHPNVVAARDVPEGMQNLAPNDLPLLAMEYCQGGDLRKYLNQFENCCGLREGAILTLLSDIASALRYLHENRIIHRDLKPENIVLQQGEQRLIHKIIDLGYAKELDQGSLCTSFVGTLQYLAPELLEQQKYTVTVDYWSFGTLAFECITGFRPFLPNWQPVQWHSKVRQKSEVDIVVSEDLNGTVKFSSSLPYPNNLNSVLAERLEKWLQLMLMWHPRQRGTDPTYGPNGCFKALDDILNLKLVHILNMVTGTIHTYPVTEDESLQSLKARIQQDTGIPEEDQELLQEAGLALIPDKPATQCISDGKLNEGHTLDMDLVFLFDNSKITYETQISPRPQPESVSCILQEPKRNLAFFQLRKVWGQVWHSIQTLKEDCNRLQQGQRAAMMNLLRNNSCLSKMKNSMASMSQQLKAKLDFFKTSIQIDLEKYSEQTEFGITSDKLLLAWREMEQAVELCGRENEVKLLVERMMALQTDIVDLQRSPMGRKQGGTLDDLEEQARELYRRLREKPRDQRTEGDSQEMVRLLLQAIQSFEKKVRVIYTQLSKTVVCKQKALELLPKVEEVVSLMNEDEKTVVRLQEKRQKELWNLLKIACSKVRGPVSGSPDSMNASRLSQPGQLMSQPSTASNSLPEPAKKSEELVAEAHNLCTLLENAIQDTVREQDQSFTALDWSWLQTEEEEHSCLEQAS

[2] = target: T2, Inhibitor of nuclear factor kappa-B kinase subunit beta (Homo sapiens) (UniProt O14920); experiment: Inhibition of IKK-beta at 10 uM by TR-FRET assay
T2 sequence (whole entry): T1 sequence (O14920 whole entry)

| SMILES | IC50 [1] [µM] | inhibition [2] [%] |
| --- | --- | --- |
| COc1cc(/C=N/NC(=O)Cc2nnc(NC(=O)c3ccc([N+](=O)[O-])cc3)s2)ccc1O | 6.98 | 76.4 |
| CC1=NN(c2ccc(S(N)(=O)=O)cc2)C(=O)/C1=C/c1ccc(-c2ccc3c(c2)C(=O)NC3=O)o1 | 6.7 | 84.8 |
| COc1ccc(C(=O)Nc2nnc(CC(=O)N/N=C/c3ccc(O)c(OC)c3)s2)cc1 | 10.8 | 53.1 |

Compounds with a lower IC50 [1], results first:

| IC50 [1] [µM] | inhibition [2] [%] | SMILES |
| --- | --- | --- |
| < 1 | – | Cc1cc(N2CCC(O)CC2)nc2sc(C(N)=O)c(N)c12 |
| 0.174 | – | N#Cc1c(C2CCCNC2)cc(-c2ccccc2O)nc1N (stereo not drawn) |

Reference: ChEMBL document CHEMBL1165968, “IKKbeta inhibitors identification part II: ligand and structure-based virtual screening” (Bioorg Med Chem, 2010)
